# System: D-263MG
# Experiment: cells
# Format: functional, cell-based, Homo sapiens
# Details: Homo sapiens, D-263MG
# Description: SANGER: Inhibition of human D-263MG cell growth in a cell viability assay.
row,SMILES,IC50
1,OC[C@H](Cc1ccccc1)Nc1nc(Oc2ccc3c(c2)CCC3)nc2c1ncn2Cc1ccc(-c2ccccc2)cc1,> 10.2 µM

# System: LU-134-A
# Experiment: cells
# Format: functional, cell-based, Homo sapiens
# Details: Homo sapiens, LU-134-A
# Description: SANGER: Inhibition of human LU-134-A cell growth in a cell viability assay.
row,SMILES,IC50
1,OC[C@H](Cc1ccccc1)Nc1nc(Oc2ccc3c(c2)CCC3)nc2c1ncn2Cc1ccc(-c2ccccc2)cc1,> 10.2 µM

# System: KM12;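 note: KM12 cell growth inhibition, read out with a cell viability assay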
# Experiment: cells
# Format: functional, cell-based, Homo sapiens
# Details: Homo sapiens, KM12
# Description: SANGER: Inhibition of human KM12 cell growth in a cell viability assay.
row,SMILES,IC50
1,OC[C@H](Cc1ccccc1)Nc1nc(Oc2ccc3c(c2)CCC3)nc2c1ncn2Cc1ccc(-c2ccccc2)cc1,> 10.2 µM

# System: LS-411N
# Experiment: cells
# Format: functional, cell-based, Homo sapiens
# Details: Homo sapiens, LS-411N
row,SMILES,IC50
1,OC[C@H](Cc1ccccc1)Nc1nc(Oc2ccc3c(c2)CCC3)nc2c1ncn2Cc1ccc(-c2ccccc2)cc1,8.51 µM

# System: LC-2-ad;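 note: growth inhibition of human LC-2-ad cells, read out with a cell viability assay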
# Experiment: cells
# Format: functional, cell-based, Homo sapiens
# Details: Homo sapiens, LC-2-ad
# Description: SANGER: Inhibition of human LC-2-ad cell growth in a cell viability assay.
row,SMILES,IC50
1,OC[C@H](Cc1ccccc1)Nc1nc(Oc2ccc3c(c2)CCC3)nc2c1ncn2Cc1ccc(-c2ccccc2)cc1,8.53 µM

# System: SW 962;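 note: growth inhibition of human SW962 cells, read out by a cell viability assay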
# Experiment: cells
# Format: functional, cell-based, Homo sapiens
# Details: Homo sapiens, SW 962
# Description: SANGER: Inhibition of human SW962 cell growth in a cell viability assay.
row,SMILES,IC50
1,OC[C@H](Cc1ccccc1)Nc1nc(Oc2ccc3c(c2)CCC3)nc2c1ncn2Cc1ccc(-c2ccccc2)cc1,> 10.2 µM

# System: NCI-H1581;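 note: cell growth inhibition read out by a viability assay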
# Experiment: cells
# Format: functional, cell-based, Homo sapiens
# Details: Homo sapiens, NCI-H1581
# Description: SANGER: Inhibition of human NCI-H1581 cell growth in a cell viability assay.
row,SMILES,IC50
1,OC[C@H](Cc1ccccc1)Nc1nc(Oc2ccc3c(c2)CCC3)nc2c1ncn2Cc1ccc(-c2ccccc2)cc1,> 10.2 µM

# System: EW-1;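 note: growth inhibition of the human EW-1 cell line, read out by a cell viability assay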
# Experiment: cells
# Format: functional, cell-based, Homo sapiens
# Details: Homo sapiens, EW-1
# Description: SANGER: Inhibition of human EW-1 cell growth in a cell viability assay.
row,SMILES,IC50
1,OC[C@H](Cc1ccccc1)Nc1nc(Oc2ccc3c(c2)CCC3)nc2c1ncn2Cc1ccc(-c2ccccc2)cc1,> 10.2 µM

# System: MN-60;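 note: growth inhibition of the MN-60 cell line, determined with a cell viability assay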
# Experiment: cells
# Format: functional, cell-based, Homo sapiens
# Details: Homo sapiens, MN-60
# Description: SANGER: Inhibition of human MN-60 cell growth in a cell viability assay.
row,SMILES,IC50
1,OC[C@H](Cc1ccccc1)Nc1nc(Oc2ccc3c(c2)CCC3)nc2c1ncn2Cc1ccc(-c2ccccc2)cc1,> 10.2 µM

# System: NCI-H526;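 note: growth inhibition of the human NCI-H526 cell line, measured by a cell viability assay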
# Experiment: cells
# Format: functional, cell-based, Homo sapiens
# Details: Homo sapiens, NCI-H526
# Description: SANGER: Inhibition of human NCI-H526 cell growth in a cell viability assay.
row,SMILES,IC50
1,OC[C@H](Cc1ccccc1)Nc1nc(Oc2ccc3c(c2)CCC3)nc2c1ncn2Cc1ccc(-c2ccccc2)cc1,> 10.2 µM

# System: KP-N-YS;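 note: cell viability assay measuring inhibition of cell line growth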
# Experiment: cells
# Format: functional, cell-based, Homo sapiens
# Details: Homo sapiens, KP-N-YS
# Description: SANGER: Inhibition of human KP-N-YS cell growth in a cell viability assay.
row,SMILES,IC50
1,OC[C@H](Cc1ccccc1)Nc1nc(Oc2ccc3c(c2)CCC3)nc2c1ncn2Cc1ccc(-c2ccccc2)cc1,7.6 µM

# System: HT
# Experiment: cells
# Format: functional, cell-based, Homo sapiens
# Details: Homo sapiens, HT
# Description: SANGER: Inhibition of human HT cell growth in a cell viability assay.
row,SMILES,IC50
1,OC[C@H](Cc1ccccc1)Nc1nc(Oc2ccc3c(c2)CCC3)nc2c1ncn2Cc1ccc(-c2ccccc2)cc1,> 10.2 µM

# System: EW-3;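 note: cell viability assay read-out, IC50 reflects inhibition of growth of the EW-3 cells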
# Experiment: cells
# Format: functional, cell-based, Homo sapiens
# Details: Homo sapiens, EW-3
# Description: SANGER: Inhibition of human EW-3 cell growth in a cell viability assay.
row,SMILES,IC50
1,OC[C@H](Cc1ccccc1)Nc1nc(Oc2ccc3c(c2)CCC3)nc2c1ncn2Cc1ccc(-c2ccccc2)cc1,> 10.2 µM

# System: U-266
# Experiment: cells
# Format: functional, cell-based, Homo sapiens
# Details: Homo sapiens, U-266
# Description: SANGER: Inhibition of human U-266 cell growth in a cell viability assay.
row,SMILES,IC50
1,OC[C@H](Cc1ccccc1)Nc1nc(Oc2ccc3c(c2)CCC3)nc2c1ncn2Cc1ccc(-c2ccccc2)cc1,> 10.2 µM

# System: RS4-11;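 note: growth inhibition of RS4-11 cells, read out by a cell viability assay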
# Experiment: cells
# Format: functional, cell-based, Homo sapiens
# Details: Homo sapiens, RS4-11
# Description: SANGER: Inhibition of human RS4-11 cell growth in a cell viability assay.
row,SMILES,IC50
1,OC[C@H](Cc1ccccc1)Nc1nc(Oc2ccc3c(c2)CCC3)nc2c1ncn2Cc1ccc(-c2ccccc2)cc1,> 10.2 µM

# System: NCI-H1648;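 note: cell viability assay measuring inhibition of NCI-H1648 cell growth, from the Sanger screening data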
# Experiment: cells
# Format: functional, cell-based, Homo sapiens
# Details: Homo sapiens, NCI-H1648
# Description: SANGER: Inhibition of human NCI-H1648 cell growth in a cell viability assay.
row,SMILES,IC50
1,OC[C@H](Cc1ccccc1)Nc1nc(Oc2ccc3c(c2)CCC3)nc2c1ncn2Cc1ccc(-c2ccccc2)cc1,> 10.2 µM

# System: A253 cell line;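 note: growth inhibition of A253 cells, read out with a cell viability assay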
# Experiment: cells
# Format: functional, cell-based, Homo sapiens
# Details: Homo sapiens, A253
# Description: SANGER: Inhibition of human A253 cell growth in a cell viability assay.
row,SMILES,IC50
1,OC[C@H](Cc1ccccc1)Nc1nc(Oc2ccc3c(c2)CCC3)nc2c1ncn2Cc1ccc(-c2ccccc2)cc1,> 10.2 µM

# System: HCE-4;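 note: cell viability assay measuring inhibition of growth in the human HCE-4 cell line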
# Experiment: cells
# Format: functional, cell-based
# Details: Homo sapiens
# Description: SANGER: Inhibition of human HCE-4 cell growth in a cell viability assay.
row,SMILES,IC50
1,OC[C@H](Cc1ccccc1)Nc1nc(Oc2ccc3c(c2)CCC3)nc2c1ncn2Cc1ccc(-c2ccccc2)cc1,7.47 µM

# System: OMC-1;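 note: growth inhibition of the OMC-1 cell line, measured by a cell viability assay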
# Experiment: cells
# Format: functional, cell-based, Homo sapiens
# Details: Homo sapiens, OMC-1
# Description: SANGER: Inhibition of human OMC-1 cell growth in a cell viability assay.
row,SMILES,IC50
1,OC[C@H](Cc1ccccc1)Nc1nc(Oc2ccc3c(c2)CCC3)nc2c1ncn2Cc1ccc(-c2ccccc2)cc1,> 10.2 µM

# System: KALS-1;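 note: growth inhibition of KALS-1 cells, determined with a cell viability assay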
# Experiment: cells
# Format: functional, cell-based, Homo sapiens
# Details: Homo sapiens, KALS-1; read-out: IC50
# Description: SANGER: Inhibition of human KALS-1 cell growth in a cell viability assay.
row,SMILES,IC50
1,OC[C@H](Cc1ccccc1)Nc1nc(Oc2ccc3c(c2)CCC3)nc2c1ncn2Cc1ccc(-c2ccccc2)cc1,> 10.2 µM

# System: MLMA;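 note: growth inhibition of MLMA cells (human), determined through a cell viability readout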
# Experiment: cells
# Format: functional, cell-based, Homo sapiens
# Details: Homo sapiens, MLMA
# Description: SANGER: Inhibition of human MLMA cell growth in a cell viability assay.
row,SMILES,IC50
1,OC[C@H](Cc1ccccc1)Nc1nc(Oc2ccc3c(c2)CCC3)nc2c1ncn2Cc1ccc(-c2ccccc2)cc1,> 10.2 µM

# System: DSH1;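 note: growth inhibition of human DSH1 cells, measured with a cell viability readout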
# Experiment: cells
# Format: functional, cell-based
# Details: Homo sapiens
# Description: SANGER: Inhibition of human DSH1 cell growth in a cell viability assay.
row,SMILES,IC50
1,OC[C@H](Cc1ccccc1)Nc1nc(Oc2ccc3c(c2)CCC3)nc2c1ncn2Cc1ccc(-c2ccccc2)cc1,6.82 µM

# System: NCI-H1770;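 note: growth inhibition of NCI-H1770 cells determined with a viability readout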
# Experiment: cells
# Format: functional, cell-based, Homo sapiens
# Details: Homo sapiens, NCI-H1770
# Description: SANGER: Inhibition of human NCI-H1770 cell growth in a cell viability assay.
row,SMILES,IC50
1,OC[C@H](Cc1ccccc1)Nc1nc(Oc2ccc3c(c2)CCC3)nc2c1ncn2Cc1ccc(-c2ccccc2)cc1,8.9 µM

# System: PSN1;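 note: suppression of growth of human PSN1 cells, read out by a cell viability assay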
# Experiment: cells
# Format: functional, cell-based, Homo sapiens
# Details: Homo sapiens, PSN1
# Description: SANGER: Inhibition of human PSN1 cell growth in a cell viability assay.
row,SMILES,IC50
1,OC[C@H](Cc1ccccc1)Nc1nc(Oc2ccc3c(c2)CCC3)nc2c1ncn2Cc1ccc(-c2ccccc2)cc1,2.83 µM

# System: RKO;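 note: growth inhibition of human RKO cells, read out with a cell viability assay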
# Experiment: cells
# Format: functional, cell-based, Homo sapiens
# Details: Homo sapiens, RKO
# Description: SANGER: Inhibition of human RKO cell growth in a cell viability assay.
row,SMILES,IC50
1,OC[C@H](Cc1ccccc1)Nc1nc(Oc2ccc3c(c2)CCC3)nc2c1ncn2Cc1ccc(-c2ccccc2)cc1,3.37 µM

# System: KU812 cell line;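 note: growth inhibition of KU812 cells, read out with a cell viability assay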
# Experiment: cells
# Format: functional, cell-based, Homo sapiens
# Details: Homo sapiens, KU812
# Description: SANGER: Inhibition of human KU812 cell growth in a cell viability assay.
row,SMILES,IC50
1,OC[C@H](Cc1ccccc1)Nc1nc(Oc2ccc3c(c2)CCC3)nc2c1ncn2Cc1ccc(-c2ccccc2)cc1,0.637 µM

# System: J-RT3-T3-5;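 note: cell viability assay measuring growth inhibition of human J-RT3-T3-5 cells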
# Experiment: cells
# Format: functional, cell-based, Homo sapiens
# Details: Homo sapiens, J-RT3-T3-5
# Description: SANGER: Inhibition of human J-RT3-T3-5 cell growth in a cell viability assay.
row,SMILES,IC50
1,OC[C@H](Cc1ccccc1)Nc1nc(Oc2ccc3c(c2)CCC3)nc2c1ncn2Cc1ccc(-c2ccccc2)cc1,> 10.2 µM

# System: NCI-H446;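 note: growth inhibition of NCI-H446 cells determined by a cell viability assay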
# Experiment: cells
# Format: functional, cell-based, Homo sapiens
# Details: Homo sapiens, NCI-H446
# Description: SANGER: Inhibition of human NCI-H446 cell growth in a cell viability assay.
row,SMILES,IC50
1,OC[C@H](Cc1ccccc1)Nc1nc(Oc2ccc3c(c2)CCC3)nc2c1ncn2Cc1ccc(-c2ccccc2)cc1,> 10.2 µM

# System: KG-1;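 note: growth inhibition of KG-1 cells, read out by a cell viability assay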
# Experiment: cells
# Format: functional, cell-based, Homo sapiens
# Details: Homo sapiens, KG-1
# Description: SANGER: Inhibition of human KG-1 cell growth in a cell viability assay.
row,SMILES,IC50
1,OC[C@H](Cc1ccccc1)Nc1nc(Oc2ccc3c(c2)CCC3)nc2c1ncn2Cc1ccc(-c2ccccc2)cc1,> 10.2 µM

# System: KY821;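 note: growth inhibition of human KY821 cells, read out by a cell viability assay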
# Experiment: cells
# Format: functional, cell-based, Homo sapiens
# Details: Homo sapiens, KY821
# Description: SANGER: Inhibition of human KY821 cell growth in a cell viability assay.
row,SMILES,IC50
1,OC[C@H](Cc1ccccc1)Nc1nc(Oc2ccc3c(c2)CCC3)nc2c1ncn2Cc1ccc(-c2ccccc2)cc1,> 10.2 µM

# System: SK-MEL-2;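 note: growth inhibition of human SK-MEL-2 cells measured with a cell viability assay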
# Experiment: cells
# Format: functional, cell-based, Homo sapiens
# Details: Homo sapiens, SK-MEL-2
# Description: SANGER: Inhibition of human SK-MEL-2 cell growth in a cell viability assay.
row,SMILES,IC50
1,OC[C@H](Cc1ccccc1)Nc1nc(Oc2ccc3c(c2)CCC3)nc2c1ncn2Cc1ccc(-c2ccccc2)cc1,> 10.2 µM

# System: NCI-H1092;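 note: cell growth inhibition measured with a cell viability assay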
# Experiment: cells
# Format: functional, cell-based, Homo sapiens
# Details: Homo sapiens, NCI-H1092
# Description: SANGER: Inhibition of human NCI-H1092 cell growth in a cell viability assay.
row,SMILES,IC50
1,OC[C@H](Cc1ccccc1)Nc1nc(Oc2ccc3c(c2)CCC3)nc2c1ncn2Cc1ccc(-c2ccccc2)cc1,> 10.2 µM

# System: JVM-3;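 note: growth inhibition of human JVM-3 cells, read out with a cell viability assay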
# Experiment: cells
# Format: functional, cell-based, Homo sapiens
# Details: Homo sapiens, JVM-3
# Description: SANGER: Inhibition of human JVM-3 cell growth in a cell viability assay.
row,SMILES,IC50
1,OC[C@H](Cc1ccccc1)Nc1nc(Oc2ccc3c(c2)CCC3)nc2c1ncn2Cc1ccc(-c2ccccc2)cc1,> 10.2 µM

# System: CGTH-W-1;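 note: growth inhibition of human CGTH-W-1 cells measured by cell viability assay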
# Experiment: cells
# Format: functional, cell-based, Homo sapiens
# Details: Homo sapiens, CGTH-W-1
# Description: SANGER: Inhibition of human CGTH-W-1 cell growth in a cell viability assay.
row,SMILES,IC50
1,OC[C@H](Cc1ccccc1)Nc1nc(Oc2ccc3c(c2)CCC3)nc2c1ncn2Cc1ccc(-c2ccccc2)cc1,> 10.2 µM

# System: COLO-824
# Experiment: cells
# Format: functional, cell-based, Homo sapiens
# Details: Homo sapiens, COLO-824
# Description: SANGER: Inhibition of human COLO-824 cell growth in a cell viability assay.
row,SMILES,IC50
1,OC[C@H](Cc1ccccc1)Nc1nc(Oc2ccc3c(c2)CCC3)nc2c1ncn2Cc1ccc(-c2ccccc2)cc1,> 10.2 µM

# System: BB65-RCC;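 note: growth inhibition of the cell line, measured with a cell viability assay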
# Experiment: cells
# Format: functional, cell-based, Homo sapiens
# Details: Homo sapiens, BB65-RCC
# Description: SANGER: Inhibition of human BB65-RCC cell growth in a cell viability assay.
row,SMILES,IC50
1,OC[C@H](Cc1ccccc1)Nc1nc(Oc2ccc3c(c2)CCC3)nc2c1ncn2Cc1ccc(-c2ccccc2)cc1,7.84 µM

# System: TE-5;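 note: inhibition of cell growth, read out by a cell viability assay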
# Experiment: cells
# Format: functional, cell-based, Homo sapiens
# Details: Homo sapiens, TE-5
# Description: SANGER: Inhibition of human TE-5 cell growth in a cell viability assay.
row,SMILES,IC50
1,OC[C@H](Cc1ccccc1)Nc1nc(Oc2ccc3c(c2)CCC3)nc2c1ncn2Cc1ccc(-c2ccccc2)cc1,> 10.2 µM

# System: NOS-1;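 note: growth inhibition of the human NOS-1 cell line, read out with a cell viability assay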
# Experiment: cells
# Format: functional, cell-based, Homo sapiens
# Details: Homo sapiens, NOS-1
# Description: SANGER: Inhibition of human NOS-1 cell growth in a cell viability assay.
row,SMILES,IC50
1,OC[C@H](Cc1ccccc1)Nc1nc(Oc2ccc3c(c2)CCC3)nc2c1ncn2Cc1ccc(-c2ccccc2)cc1,> 10.2 µM

# System: TE-11;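 note: growth inhibition of human TE-11 cells, read out by a cell viability assay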
# Experiment: cells
# Format: functional, cell-based
# Details: Homo sapiens
# Description: SANGER: Inhibition of human TE-11 cell growth in a cell viability assay.
row,SMILES,IC50
1,OC[C@H](Cc1ccccc1)Nc1nc(Oc2ccc3c(c2)CCC3)nc2c1ncn2Cc1ccc(-c2ccccc2)cc1,> 10.2 µM

# System: SNU1;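 note: growth inhibition of human NCI-SNU-1 cells, measured with a cell viability assay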
# Experiment: cells
# Format: functional, cell-based, Homo sapiens
# Details: Homo sapiens, SNU1
# Description: SANGER: Inhibition of human NCI-SNU-1 cell growth in a cell viability assay.
row,SMILES,IC50
1,OC[C@H](Cc1ccccc1)Nc1nc(Oc2ccc3c(c2)CCC3)nc2c1ncn2Cc1ccc(-c2ccccc2)cc1,> 10.2 µM

# System: KNS-81-FD;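 note: growth inhibition of KNS-81-FD cells, read out with a cell viability assay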
# Experiment: cells
# Format: functional, cell-based, Homo sapiens
# Details: Homo sapiens, KNS-81-FD
# Description: SANGER: Inhibition of human KNS-81-FD cell growth in a cell viability assay.
row,SMILES,IC50
1,OC[C@H](Cc1ccccc1)Nc1nc(Oc2ccc3c(c2)CCC3)nc2c1ncn2Cc1ccc(-c2ccccc2)cc1,> 10.2 µM

# System: MZ1-PC;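 note: cell viability assay measuring growth inhibition of human MZ1-PC cells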
# Experiment: cells
# Format: functional, cell-based, Homo sapiens
# Details: Homo sapiens, MZ1-PC
# Description: SANGER: Inhibition of human MZ1-PC cell growth in a cell viability assay.
row,SMILES,IC50
1,OC[C@H](Cc1ccccc1)Nc1nc(Oc2ccc3c(c2)CCC3)nc2c1ncn2Cc1ccc(-c2ccccc2)cc1,6.97 µM

# System: ES3;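 note: growth inhibition of ES3 cells, read out with a cell viability assay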
# Experiment: cells
# Format: functional, cell-based, Homo sapiens
# Details: Homo sapiens, ES3
# Description: SANGER: Inhibition of human ES3 cell growth in a cell viability assay.
row,SMILES,IC50
1,OC[C@H](Cc1ccccc1)Nc1nc(Oc2ccc3c(c2)CCC3)nc2c1ncn2Cc1ccc(-c2ccccc2)cc1,6.65 µM

# System: KARPAS-299
# Experiment: cells
# Format: functional, cell-based, Homo sapiens
# Details: Homo sapiens, KARPAS-299
# Description: SANGER: Inhibition of human KARPAS-299 cell growth in a cell viability assay.
row,SMILES,IC50
1,OC[C@H](Cc1ccccc1)Nc1nc(Oc2ccc3c(c2)CCC3)nc2c1ncn2Cc1ccc(-c2ccccc2)cc1,> 10.2 µM

# System: OCI-AML2;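 note: growth inhibition of OCI-AML2 cells, read out with a cell viability assay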
# Experiment: cells
# Format: functional, cell-based, Homo sapiens
# Details: Homo sapiens, OCI-AML2
# Description: SANGER: Inhibition of human OCI-AML2 cell growth in a cell viability assay.
row,SMILES,IC50
1,OC[C@H](Cc1ccccc1)Nc1nc(Oc2ccc3c(c2)CCC3)nc2c1ncn2Cc1ccc(-c2ccccc2)cc1,5.77 µM

# System: BT-474
# Experiment: cells
# Format: functional, cell-based, Homo sapiens
# Details: Homo sapiens, BT-474
# Description: SANGER: Inhibition of human BT-474 cell growth in a cell viability assay.
row,SMILES,IC50
1,OC[C@H](Cc1ccccc1)Nc1nc(Oc2ccc3c(c2)CCC3)nc2c1ncn2Cc1ccc(-c2ccccc2)cc1,> 10.2 µM

# System: TGBC1TKB;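 note: growth inhibition of TGBC1TKB cells, read out by a cell viability assay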
# Experiment: cells
# Format: functional, cell-based, Homo sapiens
# Details: Homo sapiens, TGBC1TKB
# Description: SANGER: Inhibition of human TGBC1TKB cell growth in a cell viability assay.
row,SMILES,IC50
1,OC[C@H](Cc1ccccc1)Nc1nc(Oc2ccc3c(c2)CCC3)nc2c1ncn2Cc1ccc(-c2ccccc2)cc1,> 10.2 µM

# System: ES1;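 note: growth inhibition of ES1 cells, read out with a cell viability assay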
# Experiment: cells
# Format: functional, cell-based, Homo sapiens
# Details: Homo sapiens, ES1
# Description: SANGER: Inhibition of human ES1 cell growth in a cell viability assay.
row,SMILES,IC50
1,OC[C@H](Cc1ccccc1)Nc1nc(Oc2ccc3c(c2)CCC3)nc2c1ncn2Cc1ccc(-c2ccccc2)cc1,1.38 µM

# System: UACC-257
# Experiment: cells
# Format: functional, cell-based, Homo sapiens
# Details: Homo sapiens, UACC-257
# Description: SANGER: Inhibition of human UACC-257 cell growth in a cell viability assay.
row,SMILES,IC50
1,OC[C@H](Cc1ccccc1)Nc1nc(Oc2ccc3c(c2)CCC3)nc2c1ncn2Cc1ccc(-c2ccccc2)cc1,> 10.2 µM

# Reference: ChEMBL document CHEMBL1201861, “Genomics of Drug Sensitity in Cancer screening data, Wellcome Trust Sanger Institute”
